According to US20150125889A1, “IN VITRO DETECTION OF MICROORGANISMS WITH AZOREDUCTASE ACTIVITY” (BIOMÉRIEUX, priority 2012, published 2015):

Key:
Experiment in all cases: Reduction of azo substrates over 24 hours at 35° C., microtitration plate (Example 1)
Assay type in all cases: cell-based
Cronobacter muytjensii = system: Cronobacter muytjensii; design: key to RED (substrate reduced or not): RED indicates whether the substrate is reduced (Y) or not (N); RED indicates whether the substrate is reduced (Y) or not (N); key to Co (growth, absorbance at 660 nm) / Decol (substrate decolourized, decrease in absorbance) / Fluo (fluorescence multiplied by 2 relative to substrate-free control): The symbol “+” means good growth/decolourization/significant increase in fluorescence; The symbol “+/−” means difficult growth; The symbol “−” means that there is no growth/decolourization/significant increase in fluorescence; conditions: E. muytjensii, substrate 35 mg/l
Procedure, shortened: (§1)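 Each species is represented by a single strain inoculated at 0.5 McFarland into Trypcase soya broth with substrate at 35 mg/l. Plates are read continuously at 35° C. over 24 hours. A substrate counts as reduced when absorbance falls or fluorescence doubles relative to a substrate-free control.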

Geotrichum candidum = system: Geotrichum candidum; design: key to RED (substrate reduced or not): RED indicates whether the substrate is reduced (Y) or not (N); RED indicates whether the substrate is reduced (Y) or not (N); key to Co (growth, absorbance at 660 nm) / Decol (substrate decolourized, decrease in absorbance) / Fluo (fluorescence multiplied by 2 relative to substrate-free control): The symbol “+” means good growth/decolourization/significant increase in fluorescence; The symbol “+/−” means difficult growth; The symbol “−” means that there is no growth/decolourization/significant increase in fluorescence; conditions: G. candidum, substrate 35 mg/l
Procedure, shortened: as §1

Kocuria rosea = system: Kocuria rosea; design: key to RED (substrate reduced or not): RED indicates whether the substrate is reduced (Y) or not (N); RED indicates whether the substrate is reduced (Y) or not (N); key to Co (growth, absorbance at 660 nm) / Decol (substrate decolourized, decrease in absorbance) / Fluo (fluorescence multiplied by 2 relative to substrate-free control): The symbol “+” means good growth/decolourization/significant increase in fluorescence; The symbol “+/−” means difficult growth; The symbol “−” means that there is no growth/decolourization/significant increase in fluorescence; conditions: K. rosea, substrate 35 mg/l
Procedure, shortened: as §1

Pseudomonas aeruginosa = system: Pseudomonas aeruginosa; design: key to RED (substrate reduced or not): RED indicates whether the substrate is reduced (Y) or not (N); RED indicates whether the substrate is reduced (Y) or not (N); key to Co (growth, absorbance at 660 nm) / Decol (substrate decolourized, decrease in absorbance) / Fluo (fluorescence multiplied by 2 relative to substrate-free control): The symbol “+” means good growth/decolourization/significant increase in fluorescence; The symbol “+/−” means difficult growth; The symbol “−” means that there is no growth/decolourization/significant increase in fluorescence; conditions: P. aeruginosa, substrate 35 mg/l
Procedure, shortened: as §1

Staphylococcus aureus = system: Staphylococcus aureus; design: key to RED (substrate reduced or not): RED indicates whether the substrate is reduced (Y) or not (N); RED indicates whether the substrate is reduced (Y) or not (N); key to Co (growth, absorbance at 660 nm) / Decol (substrate decolourized, decrease in absorbance) / Fluo (fluorescence multiplied by 2 relative to substrate-free control): The symbol “+” means good growth/decolourization/significant increase in fluorescence; The symbol “+/−” means difficult growth; The symbol “−” means that there is no growth/decolourization/significant increase in fluorescence; conditions: S. aureus, substrate 35 mg/l
Procedure, shortened: as §1

Acinetobacter baumanii = system: Acinetobacter baumanii; design: key to RED (substrate reduced or not): RED indicates whether the substrate is reduced (Y) or not (N); RED indicates whether the substrate is reduced (Y) or not (N); key to Decol (substrate decolourized, decrease in absorbance) / Fluo (fluorescence multiplied by 2 relative to substrate-free control) / Co (growth, absorbance at 660 nm): The symbol “+” means good growth/decolourization/significant increase in fluorescence; The symbol “+/−” means difficult growth; The symbol “−” means that there is no growth/decolourization/significant increase in fluorescence; conditions: A. baumannii, substrate 35 mg/l
Procedure, shortened: as §1

Enterococcus faecalis = system: Enterococcus faecalis; design: key to RED (substrate reduced or not): RED indicates whether the substrate is reduced (Y) or not (N); RED indicates whether the substrate is reduced (Y) or not (N); key to Decol (substrate decolourized, decrease in absorbance) / Fluo (fluorescence multiplied by 2 relative to substrate-free control) / Co (growth, absorbance at 660 nm): The symbol “+” means good growth/decolourization/significant increase in fluorescence; The symbol “+/−” means difficult growth; The symbol “−” means that there is no growth/decolourization/significant increase in fluorescence; conditions: E. faecalis, substrate 35 mg/l
Procedure, shortened: as §1

| SMILES | Co (growth, absorbance at 660 nm) (Cronobacter muytjensii) | Decol (substrate decolourized, decrease in absorbance) (Cronobacter muytjensii) | Fluo (fluorescence multiplied by 2 relative to substrate-free control) (Cronobacter muytjensii) | RED (substrate reduced or not) (Cronobacter muytjensii) | Co (growth, absorbance at 660 nm) (Geotrichum candidum) | Decol (substrate decolourized, decrease in absorbance) (Geotrichum candidum) | Fluo (fluorescence multiplied by 2 relative to substrate-free control) (Geotrichum candidum) | RED (substrate reduced or not) (Geotrichum candidum) | Co (growth, absorbance at 660 nm) (Kocuria rosea) | Decol (substrate decolourized, decrease in absorbance) (Kocuria rosea) | Fluo (fluorescence multiplied by 2 relative to substrate-free control) (Kocuria rosea) | Co (growth, absorbance at 660 nm) (Pseudomonas aeruginosa) | Decol (substrate decolourized, decrease in absorbance) (Pseudomonas aeruginosa) | Fluo (fluorescence multiplied by 2 relative to substrate-free control) (Pseudomonas aeruginosa) | RED (substrate reduced or not) (Pseudomonas aeruginosa) | Co (growth, absorbance at 660 nm) (Staphylococcus aureus) | Decol (substrate decolourized, decrease in absorbance) (Staphylococcus aureus) | Fluo (fluorescence multiplied by 2 relative to substrate-free control) (Staphylococcus aureus) | RED (substrate reduced or not) (Staphylococcus aureus) | Co (growth, absorbance at 660 nm) (Acinetobacter baumanii) | further results |
| --- | --- | --- | --- | --- | --- | --- | --- | --- | --- | --- | --- | --- | --- | --- | --- | --- | --- | --- | --- | --- | --- |
| O=C(O)c1cc(/N=N/c2ccc(-c3nc4ccccc4s3)cc2)ccc1O [BF45, 2-Phenyl-benzothiazole-4′-azo-4″- hydroxybenzene-3″-carboxylic acid] | + | − | − | N | + | − | − | N | + | − | + | + | − | − | N | + | + | + | Y | + | RED (substrate reduced or not) (Kocuria rosea): Y; Decol (substrate decolourized, decrease in absorbance) (Acinetobacter baumanii): −; Fluo (fluorescence multiplied by 2 relative to substrate-free control) (Acinetobacter baumanii): +; RED (substrate reduced or not) (Acinetobacter baumanii): Y; Co (growth, absorbance at 660 nm) (Enterococcus faecalis): +; Decol (substrate decolourized, decrease in absorbance) (Enterococcus faecalis): +; Fluo (fluorescence multiplied by 2 relative to substrate-free control) (Enterococcus faecalis): +; RED (substrate reduced or not) (Enterococcus faecalis): Y |
| CN(C)c1ccc(N=Nc2ccc(S(=O)(=O)[O-])cc2)cc1.[Na+] [Methyl orange] | + | − | − | N | + | − | − | N | − | − | − | + | − | − | N | + | − | − | N | + | Decol (substrate decolourized, decrease in absorbance) (Acinetobacter baumanii): −; Fluo (fluorescence multiplied by 2 relative to substrate-free control) (Acinetobacter baumanii): −; RED (substrate reduced or not) (Acinetobacter baumanii): N; Co (growth, absorbance at 660 nm) (Enterococcus faecalis): +; Decol (substrate decolourized, decrease in absorbance) (Enterococcus faecalis): +; Fluo (fluorescence multiplied by 2 relative to substrate-free control) (Enterococcus faecalis): +; RED (substrate reduced or not) (Enterococcus faecalis): Y |
| CN(C)c1ccc(/N=N/c2ccccc2C(=O)O)cc1 [Methyl red] | + | + | + | Y | +/− | +/− | + | Y | +/− | +/− | + | + | +/− | + | Y | + | + | + | Y | + | RED (substrate reduced or not) (Kocuria rosea): Y; Decol (substrate decolourized, decrease in absorbance) (Acinetobacter baumanii): +; Fluo (fluorescence multiplied by 2 relative to substrate-free control) (Acinetobacter baumanii): +; RED (substrate reduced or not) (Acinetobacter baumanii): Y; Co (growth, absorbance at 660 nm) (Enterococcus faecalis): +; Decol (substrate decolourized, decrease in absorbance) (Enterococcus faecalis): +; Fluo (fluorescence multiplied by 2 relative to substrate-free control) (Enterococcus faecalis): +; RED (substrate reduced or not) (Enterococcus faecalis): Y |
| O=S(=O)([O-])c1ccc(N=Nc2c(O)ccc3ccccc23)cc1.[Na+] [Orange II] | + | − | − | N | +/− | − | − | N | − | − | − | + | − | − | N | + | − | − | N | + | Decol (substrate decolourized, decrease in absorbance) (Acinetobacter baumanii): −; Fluo (fluorescence multiplied by 2 relative to substrate-free control) (Acinetobacter baumanii): −; RED (substrate reduced or not) (Acinetobacter baumanii): N; Co (growth, absorbance at 660 nm) (Enterococcus faecalis): +; Decol (substrate decolourized, decrease in absorbance) (Enterococcus faecalis): +; Fluo (fluorescence multiplied by 2 relative to substrate-free control) (Enterococcus faecalis): +; RED (substrate reduced or not) (Enterococcus faecalis): Y |
